Results: patent US20240376090A1, “ISOXAZOLE DERIVATIVES AS MODULATORS OF THE 5-HT2A SEROTONIN RECEPTOR USEFUL FOR THE TREATMENT OF DISORDERED RELATED THERETO” (Arena Pharmaceuticals, Inc., priority 2020, published 2024)

These compounds were tested against 5-HT2A receptor (Homo sapiens (Human), UniProt P28223) (assay: Radioligand binding assay ([3H]5-HT competition), 5-HT2A). Conditions: [3H]5-HT radioligand, membranes of HEK293 cells expressing recombinant 5-HT2A; Ki from IC50 by Cheng-Prusoff; read-out: 5-HT2A serotonin binding Ki value.
Chain of 5-HT2A receptor (P28223 whole entry): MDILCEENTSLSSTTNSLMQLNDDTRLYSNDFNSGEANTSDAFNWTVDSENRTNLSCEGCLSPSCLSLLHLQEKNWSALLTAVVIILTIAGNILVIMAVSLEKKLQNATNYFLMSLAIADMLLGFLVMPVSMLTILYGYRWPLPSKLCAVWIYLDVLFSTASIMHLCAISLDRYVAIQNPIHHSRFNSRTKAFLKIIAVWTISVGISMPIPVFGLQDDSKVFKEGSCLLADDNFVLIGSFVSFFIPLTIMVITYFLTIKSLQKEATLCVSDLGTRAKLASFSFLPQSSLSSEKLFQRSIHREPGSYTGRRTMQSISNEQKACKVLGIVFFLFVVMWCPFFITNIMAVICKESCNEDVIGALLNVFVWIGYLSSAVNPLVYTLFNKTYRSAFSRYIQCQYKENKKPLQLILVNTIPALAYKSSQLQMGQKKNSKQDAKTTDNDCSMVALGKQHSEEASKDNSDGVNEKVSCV
Description: Competition binding experiments consisted of addition of 5 μL of serially diluted test compound, 50 μL of radioligand stock diluted in Assay Buffer (20 mM HEPES, pH 7.4, 10 mM MgCl2), and 145 μL of diluted membrane expressing the receptor of interest to 96-well microtiter plates, which were then incubated for one hour at room temperature. Assay incubations were terminated by rapid filtration through Perkin Elmer GF/C filtration plates under vacuum pressure using a 96-well Packard filtration apparatus, followed by washing the filter plates several times with ice cold Assay Buffer. Plates were then dried at 45° C. for a minimum of four hours. Finally, 25 μL of BetaScint scintillation cocktail was added to each well and the plates were counted in a Packard TopCount scintillation counter. In each competition study, test compounds were assayed at 10 concentrations with three replicates at each test concentration. Dose-response curves were constructed to determine IC50 values and these were converted to corresponding Ki values using the Cheng-Prusoff equation.

Compound | Ki
Cc1noc(C)c1-c1cc(NC(=O)C2CC2)ccc1OC[C@@H]1CCCN1 [Compound 176, (S)—N-(3-(3,5-dimethylisoxazol-4-yl)-4-(pyrrolidin-2-ylmethoxy)phenyl)cyclopropanecarboxamide] | 395 nM
Cc1noc(C)c1-c1cc(NC(=O)C2CC23CCOCC3)ccc1OC[C@H]1CCCCN1 (stereo partly drawn) [Compound 203, N-(3-(3,5-dimethylisoxazol-4-yl)-4-(((R)-piperidin-2-yl)methoxy)phenyl)-6-oxaspiro[2.5]octane-1-carboxamide] | 27.8 nM
Cc1noc(C)c1-c1cc(NC(=O)C2CC2)ccc1OCCN(C)CC1CC1 [Compound 151, N-(4-(2-((cyclopropylmethyl)(methyl)amino)ethoxy)-3-(3,5-dimethylisoxazol-4-yl)phenyl)cyclopropanecarboxamide] | 47.1 nM
Cc1noc(C)c1-c1cc(NC(=O)c2ncnn2C)ccc1OC[C@H]1CCCCN1 [Compound 212, (R)—N-(3-(3,5-dimethylisoxazol-4-yl)-4-(piperidin-2-ylmethoxy)phenyl)-1-methyl-1H-1,2,4-triazole-5-carboxamide] | 38.6 nM
Cc1nc(C(=O)Nc2ccc(OC[C@H]3CCCCN3)c(-c3c(C)noc3C)c2)c(C)s1 [Compound 210, (R)—N-(3-(3,5-dimethylisoxazol-4-yl)-4-(piperidin-2-ylmethoxy)phenyl)-2,5-dimethylthiazole-4-carboxamide] | 86.3 nM
Cc1noc(C)c1-c1cc(NC(=O)c2ccncc2F)ccc1OCCN1CCCC1 [Compound 103, N-(3-(3,5-dimethylisoxazol-4-yl)-4-(2-(pyrrolidin-1-yl)ethoxy)phenyl)-3-fluoroisonicotinamide] | 50.8 nM
COc1cccc(CC(=O)Nc2ccc(OCCN3CCC3)c(-c3c(C)noc3C)c2)c1 [Compound 124, N-(4-(2-(azetidin-1-yl)ethoxy)-3-(3,5-dimethylisoxazol-4-yl)phenyl)-2-(3-methoxyphenyl)acetamide] | 10.6 nM
Cc1ncsc1C(=O)Nc1ccc(OCCN2CCCC2)c(-c2c(C)noc2C)c1 [Compound 109, N-(3-(3,5-dimethylisoxazol-4-yl)-4-(2-(pyrrolidin-1-yl)ethoxy)phenyl)-4-methylthiazole-5-carboxamide] | 3.78 nM
CCN(C)CCOc1ccc(NC(=O)C2CC2)cc1-c1c(C)noc1C [Compound 149, N-(3-(3,5-dimethylisoxazol-4-yl)-4-(2-(ethyl(methyl)amino)ethoxy)phenyl)cyclopropanecarboxamide] | 13.9 nM
Cc1noc(C)c1-c1cc(NC(=O)C2CC2)ccc1OC[C@@H]1COCCN1 [Compound 171, (S)—N-(3-(3,5-dimethylisoxazol-4-yl)-4-(morpholin-3-ylmethoxy)phenyl)cyclopropanecarboxamide] | 184 nM
Cc1nc(C(C)C)sc1C(=O)Nc1ccc(OC[C@H]2CCCCN2)c(-c2c(C)noc2C)c1 [Compound 231, (R)—N-(3-(3,5-dimethylisoxazol-4-yl)-4-(piperidin-2-ylmethoxy)phenyl)-2-isopropyl-4-methylthiazole-5-carboxamide] | 16.8 nM
Cc1noc(C)c1-c1cc(NC(=O)c2c(F)cnn2C)ccc1OCCN1CCC1 [Compound 130, N-(4-(2-(azetidin-1-yl)ethoxy)-3-(3,5-dimethylisoxazol-4-yl)phenyl)-4-fluoro-1-methyl-1H-pyrazole-5-carboxamide] | 12.8 nM
Cc1cnoc1C(=O)Nc1ccc(OCCN2CCCC2)c(-c2c(C)noc2C)c1 [Compound 111, N-(3-(3,5-dimethylisoxazol-4-yl)-4-(2-(pyrrolidin-1-yl)ethoxy)phenyl)-4-methylisoxazole-5-carboxamide] | 23.8 nM
Cc1noc(C)c1-c1cc(NC(=O)c2cnsc2)ccc1OC[C@H]1CCCCN1 [Compound 186, (R)—N-(3-(3,5-dimethylisoxazol-4-yl)-4-(piperidin-2-ylmethoxy)phenyl)isothiazole-4-carboxamide] | 7.71 nM
Cc1nc(C)c(C(=O)Nc2ccc(OCCN3CCCC3)c(-c3c(C)noc3C)c2)s1 [Compound 110, N-(3-(3,5-dimethylisoxazol-4-yl)-4-(2-(pyrrolidin-1-yl)ethoxy)phenyl)-2,4-dimethylthiazole-5-carboxamide] | 110 nM
Cc1noc(C)c1-c1cc(NC(=O)C2CC2)ccc1OCCN1C[C@@H]2C[C@H]1CO2 [Compound 160, N-(4-(2-((1S,4S)-2-oxa-5-azabicyclo[2.2.1]heptan-5-yl)ethoxy)-3-(3,5-dimethylisoxazol-4-yl)phenyl)cyclopropanecarboxamide] | 4.07 nM
Cc1noc(C)c1-c1cc(NC(=O)C2CC2)ccc1OCCN(C)C1CCC1 [Compound 152, N-(4-(2-(cyclobutyl(methyl)amino)ethoxy)-3-(3,5-dimethylisoxazol-4-yl)phenyl)cyclopropanecarboxamide] | 41.7 nM

Compound | Ki
Cc1noc(C)c1-c1cc(NC(=O)C2CC2)ccc1OCCN1CC[C@H](O)C1 [Compound 147, (S)—N-(3-(3,5-dimethylisoxazol-4-yl)-4-(2-(3-hydroxypyrrolidin-1-yl)ethoxy)phenyl)cyclopropanecarboxamide] | 25.2 nM
N-(4-(2-(azetidin-1-yl)ethoxy)-3-(3,5-dimethylisoxazol-4-yl)phenyl)-2-(5-fluoropyridin-2-yl)acetamide [Compound 129] | 182 nM
Cc1noc(C)c1-c1cc(NC(=O)C2CC2)ccc1OCCN1CCOC(=O)CC1 [Compound 137, N-[3-(3,5-dimethylisoxazol-4-yl)-4-[2-(7-oxo-1,4-oxazepan-4-yl)ethoxy]phenyl]cyclopropanecarboxamide] | 551 nM
Cc1noc(C)c1-c1cc(NC(=O)C2CC2)ccc1OCCN1CC[C@@H](O)C1 [Compound 148, (R)—N-(3-(3,5-dimethylisoxazol-4-yl)-4-(2-(3-hydroxypyrrolidin-1-yl)ethoxy)phenyl)cyclopropanecarboxamide] | 71.6 nM
Cc1noc(C)c1-c1cc(NC(=O)C2CC2)ccc1OCCN1CCCC1 [Compound 167, N-[3-(3,5-dimethylisoxazol-4-yl)-4-(2-pyrrolidin-1-ylethoxy)phenyl]cyclopropanecarboxamide] | 7.71 nM
Cc1nocc1C(=O)Nc1ccc(OC[C@H]2CCCCN2)c(-c2c(C)noc2C)c1 [Compound 183, (R)—N-(3-(3,5-dimethylisoxazol-4-yl)-4-(piperidin-2-ylmethoxy)phenyl)-3-methylisoxazole-4-carboxamide] | 5.09 nM
Cc1nc(C)c(C(=O)Nc2ccc(OC[C@H]3CCCCN3)c(-c3c(C)noc3C)c2)s1 [Compound 194, (R)—N-(3-(3,5-dimethylisoxazol-4-yl)-4-(piperidin-2-ylmethoxy)phenyl)-2,4-dimethylthiazole-5-carboxamide] | 32.2 nM
Cc1noc(C)c1-c1cc(NC(=O)Cc2ccccc2)ccc1OCCN1CCC1 [Compound 123, N-(4-(2-(azetidin-1-yl)ethoxy)-3-(3,5-dimethylisoxazol-4-yl)phenyl)-2-phenylacetamide] | 11.8 nM
Cc1noc(C)c1-c1cc(NC(=O)C2CC2)ccc1OC1CN(C)C1 [Compound 132, N-[3-(3,5-dimethylisoxazol-4-yl)-4-(1-methylazetidin-3-yl)oxy-phenyl]cyclopropanecarboxamide] | 46.1 nM
Cc1noc(C)c1-c1cc(NC(=O)C2CC2C2CC2)ccc1OCCN1CCCC1 (stereo not shown) [Compound 100, N-(3-(3,5-dimethylisoxazol-4-yl)-4-(2-(pyrrolidin-1-yl)ethoxy)phenyl)-[1,1′-bi(cyclopropane)]-2-carboxamide] | 2.89 nM
COCC1(C(=O)Nc2ccc(OC[C@H]3CCCCN3)c(-c3c(C)noc3C)c2)CC1 [Compound 204, (R)—N-(3-(3,5-dimethylisoxazol-4-yl)-4-(piperidin-2-ylmethoxy)phenyl)-1-(methoxymethyl)cyclopropane-1-carboxamide] | 25 nM
Cc1noc(C)c1-c1cc(NC(=O)Cc2ccc(F)cn2)ccc1OC[C@H]1CCCCN1 [Compound 227, (R)—N-(3-(3,5-dimethylisoxazol-4-yl)-4-(piperidin-2-ylmethoxy)phenyl)-2-(5-fluoropyridin-2-yl)acetamide] | 91.6 nM
Cc1noc(C)c1-c1cc(NC(=O)C2CC2)ccc1OCCN1CCC2(CCOC2=O)CC1 [Compound 142, N-(3-(3,5-dimethylisoxazol-4-yl)-4-(2-(1-oxo-2-oxa-8-azaspiro[4.5]decan-8-yl)ethoxy)phenyl)cyclopropanecarboxamide] | 67.4 nM
Cc1noc(C)c1-c1cc(NC(=O)c2cnoc2C)ccc1OC[C@H]1CCCCN1 [Compound 184, (R)—N-(3-(3,5-dimethylisoxazol-4-yl)-4-(piperidin-2-ylmethoxy)phenyl)-5-methylisoxazole-4-carboxamide] | 10.5 nM
Cc1noc(C)c1-c1cc(NC(=O)C2CC2)ccc1OCCN1CCC2(CC1)CNC2=O [Compound 139, N-(3-(3,5-dimethylisoxazol-4-yl)-4-(2-(1-oxo-2,7-diazaspiro[3.5]nonan-7-yl)ethoxy)phenyl)cyclopropanecarboxamide] | 124 nM
Cc1cnn(C)c1C(=O)Nc1ccc(OC[C@H]2CCCCN2)c(-c2c(C)noc2C)c1 [Compound 208, (R)—N-(3-(3,5-dimethylisoxazol-4-yl)-4-(piperidin-2-ylmethoxy)phenyl)-1,4-dimethyl-1H-pyrazole-5-carboxamide] | 9.66 nM
COC1(CC(=O)Nc2ccc(OC[C@H]3CCCCN3)c(-c3c(C)noc3C)c2)CC1 [Compound 228, (R)—N-(3-(3,5-dimethylisoxazol-4-yl)-4-(piperidin-2-ylmethoxy)phenyl)-2-(1-methoxycyclopropyl)acetamide] | 66.4 nM
